Data as given in patent US9040500B2, “Method for treating hematopoietic neoplasms” (priority 2007, dated 2015).

Assays:
subcutaneous HL60 tumors [1] = test: Subcutaneous in vivo leukemia model (Example 1); design: species or system athymic nu/nu mice; details: for tumor volume / tumor growth versus control (PBS): CA1dP or CA4P 75 mg/kg/inj, Ara-C 20 mg/kg/inj, HL60 s.c. in nu/nu mice
Procedure: HL60 (1×10^7 cells in 0.1 ml) were injected subcutaneously into the dorsa of 4-6 week old athymic nu/nu mice (Southern Research Institute). When palpable tumors were evident (average tumor volume 100 mm^3; i.e. approximately 12 days after inoculation), 6 experimental groups of mice were randomized, each with 10 animals. Treatment was initiated according to the following regimens:
Tumor volume was measured three times a week until the endpoint was reached (tumor volume >3000 mm^3), or for 90 days post-treatment.

subcutaneous HL60 tumors [2] = test: Dose response activity in subcutaneous HL60 model (Example 2); format: in vivo, athymic nu/nu mice
Procedure: HL60 (1×10^7 cells in 0.1 ml) were injected subcutaneously into the dorsa of 4-6 week old athymic nu/nu mice (Southern Research Institute). When palpable tumors were evident (average tumor volume 100 mm^3; i.e. approximately 12 days after inoculation), ten experimental groups of mice were randomized, each with 10 animals. Treatment was initiated according to the following regimens:
Tumor volume was measured three times per week.

leukemic cells = test: Leukemic cell proliferation and cell death in vitro; format: cell-based; details: low and non-toxic doses
[3] = system: intracellular reactive oxygen species (ROS); test: Intracellular reactive oxygen species in leukemic cells; format: cell-based
[4] = system: subcutaneous solid tumors; details: concentrations well below the maximum tolerated dose; cited from earlier work
tubulin = details: cited from earlier work
[5] = CA1dP 75 mg/kg/inj with addition of Ara-C 20 mg/kg/inj
[6] = subcutaneous mouse models of AML, single agent (introduction summary)
[7] = CA1dP combined with araC 20 mg/kg/inj

Q: With `Nc1ccn([C@@H]2O[C@H](CO)[C@@H](O)[C@@H]2O)c(=O)n1` [Ara-C, cytosine arabinoside, reference compound] as the molecule, how does the “tumor volume / tumor growth versus control (PBS)” value (subcutaneous HL60 tumors [1]; single agent) read?
A: The value was “little improvement”.

Q: Which “complete regressions out of ten treated mice” value (subcutaneous HL60 tumors [1]; [5]) does the source give for `COc1cc(/C=C\c2ccc(OC)c(OP(=O)(O)O)c2OP(=O)(O)O)cc(OC)c1OC` [CA1dP, combretastatin A-1 diphosphate] here?
A: The value was “six”.

Q: And the “tumor volume versus CA1dP alone” value (subcutaneous HL60 tumors [1]; [5])?
A: The value was “further decreased tumor volumes”.

Q: And the “tumor load with co-administered chemotherapeutic agent” value (subcutaneous HL60 tumors [1]; co-administration of AraC (introduction summary))?
A: Its value is “decreases tumor load even further”.

Q: What about the “complete tumor regressions in a population of ten treated mice” value (subcutaneous HL60 tumors [1]; single agent, 75 mg/kg/inj Q7D x 2) of the same molecule?
A: Its value is “five”.

Q: And the “tumor volume / tumor growth versus control (PBS)” value (subcutaneous HL60 tumors [1]; single agent)?
A: Its value is “substantial decreases in tumor volume”.

Q: And the “survival of treated mice” value (subcutaneous HL60 tumors [1]; [6])?
A: The value was “significantly prolonged survival”.

Q: And the “tumor load of treated mice” value (subcutaneous HL60 tumors [1]; [6])?
A: Its value is “significantly decreased tumor load”.

Q: What about the “decrease in tumor volume relative to dose” value (subcutaneous HL60 tumors [2]; CA1dP 2.5, 10, 25, 75 mg/kg/inj, day 3 and 10) of the same molecule?
A: The value was “clear dose response relationship”.

Q: And the “duration of tumor growth inhibition, combination versus CA1dP alone” value (subcutaneous HL60 tumors [2]; [7])?
A: Its value is “longer growth inhibition”.

Q: What about the “number of complete responses, combination versus CA1dP alone” value (subcutaneous HL60 tumors [2]; [7]) of the same molecule?
A: The value was “not significantly altered”.

Q: What about the anti-tumor activity (subcutaneous HL60 tumors [2]; doses of CA1dP above 2.5 mg/kg) of the same molecule?
A: The anti-tumor activity was “significant anti-tumor activity”.

Q: What about the “leukemic cell proliferation in vitro” value (leukemic cells) of the same molecule?
A: Its value is “inhibit leukemic cell proliferation in vitro”.

Q: What about the “mitotic arrest and cell death of leukemic cells” value (leukemic cells) of the same molecule?
A: The value was “induce mitotic arrest and cell death”.

Q: What about the “intracellular reactive oxygen species (ROS)” value [3] of the same molecule?
A: Its value is “rapidly increases intracellular reactive oxygen species”.

Q: What about the “microtubule depolymerization and vascular shutdown causing tumor necrosis” value [4] of the same molecule?
A: The value was “induces rapid microtubule depolymerization and vascular shutdown”.

Q: Which “life span versus controls” value (subcutaneous HL60 tumors [1]; single agent, 75 mg/kg/inj) does the source give for `COc1ccc(/C=C\c2cc(OC)c(OC)c(OC)c2)cc1OP(=O)(O)O` [CA4P, combretastatin A-4 phosphate, reference compound] here?
A: The value was “extended life span”.

Q: And the “tumor volume / tumor growth versus control (PBS)” value (subcutaneous HL60 tumors [1]; single agent)?
A: The value was “delayed tumor growth”.

Q: With `COc1ccc(/C=C\c2cc(OC)c(OC)c(OC)c2)c(O)c1O` [Combretastatin A-1] as the molecule, how does the “affinity for tubulin at the colchicine site, relative to colchicine” value (tubulin) read?
A: The value was “higher affinity”.
